ChEMBL document CHEMBL1255184, “A novel series of positive modulators of the AMPA receptor: structure-based lead optimization” (Bioorg Med Chem Lett, 2010)
In brackets after ≈: the same amount, converted by molar mass. Activity calls are given as the source filed them. The calls are words filed in the database; no cut-off is given here.

Columns and labels:
[1] = Volume of distribution at steady state in Wistar rat at 2 mg/kg, iv; type: ADME, organism-based; parameters: dose 2 mg/kg, route intravenous; conditions: in vivo, read-out: Vdss
[2] = Oral bioavailability in Wistar rat at 10 mg/kg; type: ADME, organism-based; conditions: in vivo
[3] = Half life in Wistar rat at 2 mg/kg, iv; type: ADME, organism-based; parameters: dose 2 mg/kg, route intravenous; conditions: in vivo
[4] = Plasma clearance in Wistar rat at 2 mg/kg, iv; type: ADME, organism-based; parameters: dose 2 mg/kg, route intravenous
[5] = Solubility of the compound; type: physicochemical
[6] = Ratio of drug level in brain to plasma in Wistar rat; type: ADME
[7] = Intrinsic clearance in rat microsomes; type: ADME, Microsome
[8] = Intrinsic clearance in human microsomes; type: ADME, Microsome
[9] = Inhibition of NMDA receptor
Rattus norvegicus = experiment: Potentiation of AMPA-induced single unit activity in iv dosed hippocampus of anesthetized rat by electrophysiology assay; type: functional; conditions: read-out: MED
[10] = Inhibition of kainate receptor
[11] = Inhibition of GABA receptor

SMILES | Vd [1] | bioavailability [2] | half-life [3] | clearance [4] | solubility [5] | Kp [6] | microsomal CLint [7] | microsomal CLint [8] | inhibition [9] | inhibition [10] | inhibition [11] | minimal effective dose (Rattus norvegicus)
O=C(Cn1nc(C(F)(F)F)c2c1CCCC2)Nc1sc2c(c1C(=O)N[C@@H]1CCNC1)CCCC2 | 0.5 L/kg | 4% | 228 min | 2.3 mL/min/kg | 20 µg/mL (≈ 40.4 µM) | 1.03 | – | – | – | – | – | –
CCN(CC)Cc1cn(CC(=O)Nc2sc3c(c2C(N)=O)CCCC3)nc1C(F)(F)F | – | – | – | – | – | – | > 270 µL/min/mg | > 270 µL/min/mg | – | – | – | –
CNCc1cn(CC(=O)Nc2sc3c(c2C(=O)NC)CCCC3)nc1C(F)(F)F | – | – | – | 43 mL/min/kg | – | – | 33 µL/min/mg | 16 µL/min/mg | – | – | – | –
O=C(Cn1nc(C(F)(F)F)c2c1CCCC2)Nc1sc2c(c1CO)CCCC2 | – | – | – | – | – | – | > 270 µL/min/mg | > 270 µL/min/mg | – | – | – | –
NC(=O)c1c(NC(=O)Cn2nc(C(F)(F)F)c3c2CCNC3)sc2c1CCCC2 | – | – | – | – | – | – | 33 µL/min/mg | 57 µL/min/mg | – | – | – | –

More lines, main results first:

Vd [1] | bioavailability [2] | half-life [3] | clearance [4] | solubility [5] | Kp [6] | microsomal CLint [7] | microsomal CLint [8] | inhibition [9] | inhibition [10] | inhibition [11] | SMILES | minimal effective dose (Rattus norvegicus)
2.4 L/kg | 15% | 90 min | 23 mL/min/kg | 65 µg/mL (≈ 156 µM) | – | < 12 µL/min/mg | 33 µL/min/mg | – | – | – | CNCc1cn(CC(=O)Nc2sc3c(c2C(N)=O)CCCC3)nc1C(F)(F)F | –
– | – | – | – | – | – | 49 µL/min/mg | 89 µL/min/mg | – | – | – | CNCc1cn(CCC(=O)Nc2sc3c(c2C(N)=O)CCCC3)nc1C(F)(F)F | –
1.1 L/kg | 16% | 114 min | 9 mL/min/kg | 79 µg/mL (≈ 196 µM) | – | 15 µL/min/mg | 15 µL/min/mg | – | – | – | CNCc1cn(CC(=O)Nc2sc3c(c2C(N)=O)CCCC3)nc1C(C)(C)C | –
0.6 L/kg | 43% | 66 min | 15 mL/min/kg | 107 µg/mL (≈ 249 µM) | 0.05 | < 19 µL/min/mg | < 12 µL/min/mg | inactive | inactive | inactive | CCNCc1cn(CC(=O)Nc2sc3c(c2C(N)=O)CCCC3)nc1C(F)(F)F | 0.3 mg/kg
